A short description of series [1]: Rodent brain penetration study. The settings on record: male, Wistar, rat, oral; 3 mg/kg, p.o.; brain-plasma ratio; read-out: Single dose Rat Brain Penetration (Cb/Cp). It is filed as in vivo, Male Wistar rats. The method, then:
WO2015044072A1 patent application discloses indole derivatives as M1 PAM compounds. […] This makes these compounds less ideal for the treatment of CNS disorders.
Rodent Brain Penetration Study
Male Wistar rats (260±40 grams) were used as experimental animals. Three animals were housed in each cage. Animals were given water and food ad libitum throughout the experiment and maintained on a 12 hours light/dark cycle.
Brain penetration was determined in discrete manner in rats. One day prior to dosing day, male Wistar rats were acclimatized and randomly grouped according to their weight. At each time point (0.5, 1 and 2 hours) n=3 animals were used.
The test compounds were suitably preformulated and administered orally at (free base equivalent) 3 mg/kg. Blood samples were removed via cardiac puncture by using isoflurane anesthesia. The animals were sacrificed to collect brain tissue. Plasma was separated and brain samples were homogenized and stored frozen at ˜20° C. until analysis. The concentrations of the test compounds in plasma and brain were determined using LC-MS/MS method.
The test compounds were quantified in plasma and brain homogenate by qualified LC-MS/MS method using suitable extraction technique. The test compounds were quantified in the calibration range of 1-500 ng/mL in plasma and brain homogenate. Study samples were analyzed using calibration samples in the batch and quality control samples spread across the batch.

The target in series [2] is human Muscarinic M1 receptor (Homo sapiens (Human), UniProt P11229). Description: Allosteric potency EC50 for muscarinic M1 receptor (CHO cells, pCRE-Luc reporter). In kind it is cell-based. The settings on record: luciferase activity, 4 hours. Here is the method: Determination of Allosteric Potency EC50 Values for Muscarinic M1 Receptor:
A stable CHO cell line expressing recombinant human Muscarinic M1 receptor and pCRE-Luc reporter system was used for cell-based assay. The assay offers a non-radioactive based approach to determine binding of a compound to GPCRs. In this specific assay, the level of intracellular cyclic AMP which is modulated by activation or inhibition of the receptor is measured. The recombinant cells harbor luciferase reporter gene under the control of cAMP response element.
The above cells were grown in 96 well clear bottom white plates in Hams F12 medium containing 10% fetal bovine serum (FBS). Prior to the addition of compounds or standard agonist, cells were serum starved overnight. Increasing concentrations of test compounds were added along with EC20 of acetylcholine in OptiMEM medium to the cells. The incubation was continued at 37° C. in CO2 incubator for 4 hours. Medium was removed and cells were washed with phosphate buffered saline. The cells were lysed and luciferase activity was measured in a Luminometer. Luminescence units were plotted against the compound concentrations using Graphpad software. EC50 values of the compounds were defined as the concentration required in stimulating the luciferase activity by 50% in presence of EC20 of acetylcholine and the results are provided in table 1.

The next series has as its system Male Wistar rats. The experiment in a line: Object recognition task model. It is filed as in vivo. The settings on record: 3 mg/kg, p.o. Here is the method: Object Recognition Task Model
The cognition enhancing properties of compounds of this invention were estimated by using this model.
Male Wistar rats (8-10 weeks old) were used as experimental animals. Four animals were housed in each cage. Animals were kept on 20% food deprivation from a day prior to experimentation. Water was provided ad libitum throughout the experiment. Animals were maintained on a 12 hours light/dark cycle in temperature and humidity controlled room. The experiment was carried out in an open field made up of acrylic. Rats were habituated to individual arenas (open field) for 1 hour in the absence of any objects on day 1.
One group of 12 rats received vehicle and another set of animals received compound of the formula (I), before the familiar (T1) and choice (T2) trials. During the familiarization phase, (T1), the rats were placed individually in the arena for 3 minutes, in which two identical objects (a1 and a2) were positioned 10 cm from the wall. 24 hours after T1, trial for long-term memory test was performed. The same rats were placed in the same arena as they were placed in T1 trial. During the choice phase (T2) rats were allowed to explore the arena for 3 minutes in presence of a copy of familiar object (a3) and one novel object (b). During the T1 and T2 trial, explorations of each object (defined as sniffing, licking, chewing or having moving vibrissae whilst directing the nose towards the object at a distance of less than 1 cm) were recorded using stopwatch. • T1 is the total time spent exploring the familiar objects (a1+a2). • T2 is the total time spent exploring the familiar object and novel object (a3+b). • Discriminative index=Time spent with novel object/(time spent with novel and familiar object).
The object recognition test was performed as described by Behavioural Brain Research, 1988, 31, 47-59 and the results are provided in table 5.

Series [3] can be described thus: Protein binding assay (HT dialysis), rat matrices. In kind it is in vitro ADME. Particulars: Mean ± SEM. The method, then: (§1) Unbound fractions of new chemical entities in plasma, brain homogenate and liver microsomes were determined using high-throughput dialysis (HT dialysis). Briefly, dialysis membranes were soaked in deionized water for 20 minutes and then in deionized water with 30% ethanol for 15 minutes and finally in phosphate buffer until use. Membranes were rinsed in phosphate buffer before assembling. The membranes were layered between teflon bars of dialysis assembly. Stock solutions of test compounds were prepared at 10 mM in DMSO, diluted to 1 mM in acetonitrile and further diluted to 100 μM in mixture of water and acetonitrile (1:1 v/v). Human plasma (pool of 3) was prepared from human blood (3 donors) by centrifuging at 4000 rpm for 10 min at 4° C. Rat and dog blood were obtained on the day of the study and centrifuged to obtain plasma. Rat brains were isolated, cleaned and homogenized with 2 volumes of buffer (3 fold dilution). Liver microsomes were prepared at 0.5 mg/mL in phosphate buffer (100 mM, pH 7.4). The dialysate chambers were loaded with 150 μL of 100 mM phosphate buffer (pH 7.4) in triplicates. The matrix chambers were loaded with 150 μL of the plasma or brain homogenate or microsomal suspension spiked with test compounds at a final concentration of 1 μM. 50 μL of the sample was removed from both the chambers at 0 h. The plate was sealed and incubated at 37° C. for 6 h at 100 rpm. After 6 h, 50 μL of the sample was removed from both the chambers. Equal volumes of buffer or human plasma/microsomal suspension were added to the plasma/microsomal and buffer samples respectively to create identical sample matrices for analysis. The samples were precipitated with 150 μL of acetonitrile containing fluoxetine as an internal standard. All the samples were centrifuged at 10000 rpm for 10 minutes at 4° C.

Series [4] in a line: Protein binding assay (HT dialysis), dog matrices. Particulars: Mean ± SEM. It is filed as in vitro ADME. The method, then:
as §1

A short description of series [5]: Protein binding assay (HT dialysis), human matrices. The settings on record: Mean ± SEM. In kind it is in vitro ADME. Here is the method: as §1
A short description of series [6]: Rodent pharmacokinetic study. Particulars: male, Wistar. In kind it is in vivo, Male Wistar rats. The method, then: Rodent Pharmacokinetic Study
Male Wistar rats (260±50 grams) were used as experimental animals. Animals were housed individually in polypropylene cage. Two days prior to study, male Wistar rats were anesthetized with isoflurane for surgical placement of jugular vein catheter. Rats were randomly divided for oral (3 mg/kg) and intravenous (i.v.) (1 mg/kg) dosing (n=3/group) and fasted overnight before oral dosing (p.o.). However, rats allocated to intravenous dosing food and water was provided ad libitum.
At pre-determined point, blood was collected through jugular vein and replenished with an equivalent volume of normal saline. Collected blood was transferred into a labeled eppendorf tube containing 10 μL of heparin as an anticoagulant. Typically blood samples were collected at following time points: 0.08, 0.25, 0.5, 1, 2, 4, 6, 8, and 24 hours post dose. Blood was centrifuged at 4000 rpm for 10 minutes. Plasma was separated and stored frozen at −80° C. until analysis. The concentrations of the test compounds were quantified in plasma by qualified LC-MS/MS method using suitable extraction technique. The test compounds were quantified in the calibration range around 1-1000 ng/mL in plasma. Study samples were analyzed using calibration samples in the batch and quality control samples spread across the batch.
Pharmacokinetic parameters Cmax, AUCt, T1/2, Clearance, and Bioavailability (% F) were calculated by non-compartmental model using standard non-compartmental model by using Phoenix WinNonlin 6.0.2 or 6.0.3 version Software package and the results are tabulated in table 3.

A further series has as its target M1 (Homo sapiens (Human), UniProt P11229). Particulars: cited from earlier work.
The conditions of series [7]: cited from earlier work.
For series [8] the following is noted: cited from earlier work. This is another data set of the same source.
[9] abbreviates: mean ± S.E.M, choice trial 24 hours after T1.
The mark [10] stands for this setting: in presence of EC20 of acetylcholine, read-out: hM1 PAM EC50.

Structures can show the parent of a compound that is named as a salt. Where two headings read alike, the source gives them in different places.

In the case of `COc1ccc(Cn2cc(C(=O)N[C@H]3CCNC[C@H]3F)c3c(F)cccc32)cc1` (single isomer, unassigned; isomer-i) [Example 38, cis-N-(3-Fluoropiperidin-4-yl)-1-(4-methoxybenzyl)-4-fluoro-1H-indole-3-carboxamide hydrochloride (Isomer-I)], the Kp in series [1] stood at 1.03 ± 0.17. Moreover, the concentration giving a half-maximal response (EC50) (usually the concentration at which the effect is half-maximal) in [2] (hM1 PAM EC50, in presence of EC20 of acetylcholine) worked out at 1450 nM.
In the case of `O=C(N[C@H]1CCCC[C@@H]1O)c1cn(Cc2ccnc(Cl)c2)c2c(F)ccc(F)c12` [Example 6, N-[(1S,2S)-2-Hydroxycyclohexyl]-1-(2-Chloropyridin-4-ylmethyl)-4,7-difluoro-1H-indole-3-carboxamide], in series [1], the Kp turned out to be 2.09 ± 0.46. The Inference result in the series with Male Wistar rats is “Active”. Besides, in the series with Male Wistar rats (setting [9]), the “Exploration time Familiar object” value was found to be 15.75 ± 1.71 s. For the same compound, the “Exploration time Novel object” value in the series with Male Wistar rats (setting [9]) was 23.67 ± 2.62 s. Also, the fraction unbound at 6 h, 1 μM in series [3] (pH 7.4, Rat brain homogenate, 37° C., n = 3, read-out: Fu Brain) was 0.014 ± 0.001; in [3] (pH 7.4, Rat liver microsomes 0.5 mg/mL, n = 3, read-out: Fu Microsomes), 0.56 ± 0.048; in series [3] (pH 7.4, Rat plasma, 37° C., n = 3, read-out: Fu Plasma), 0.05 ± 0.008; in series [4] (pH 7.4, Dog liver microsomes 0.5 mg/mL, n = 3, read-out: Fu Microsomes), 0.713 ± 0.041; in series [4] (pH 7.4, Dog plasma, 37° C., n = 3, read-out: Fu Plasma), 0.043 ± 0.002; in [5] (pH 7.4, Human liver microsomes 0.5 mg/mL, n = 3, read-out: Fu Microsomes) it was 0.546 ± 0.018. In addition, the fraction unbound at 6 h, 1 μM in [5] (pH 7.4, Human plasma, 37° C., n = 3, read-out: Fu Plasma) was determined as 0.03 ± 0.003. The EC50 in [2] (setting [10]) was found to be 122 nM.
Regarding `O=C(N[C@H]1CCCC[C@@H]1O)c1cn(Cc2ccncc2F)c2c(F)ccc(F)c12` [Example 10, N-[(1S,2S)-2-Hydroxycyclohexyl]-1-(5-fluoropyridin-4-ylmethyl)-4,7-difluoro-1H-indole-3-carboxamide], the Kp in series [1] was 2.4 ± 0.3. Moreover, the half-maximal effective concentration (EC50) in series [2] (setting [10]) is 940 nM.
In the case of `O=C(N[C@H]1CCCC[C@@H]1O)c1cn(Cc2cc(F)ncc2F)c2cccc(F)c12` [Example 11, N-[(1S,2S)-2-Hydroxycyclohexyl]-1-(2,5-difluoropyridin-4-ylmethyl)-4-fluoro-1H-indole-3-carboxamide], in series [1], the Kp is 1.59 ± 0.35. For the same compound, the EC50 in series [2] (setting [10]) amounted to 1530 nM.
Consider `O=C(N[C@H]1CCCC[C@@H]1O)c1cn(Cc2cc(F)ncc2F)c2c(F)ccc(F)c12` [Example 12, N-[(1S,2S)-2-Hydroxycyclohexyl]-1-(2,5-difluoropyridin-4-ylmethyl)-4,7-difluoro-1H-indole-3-carboxamide], for which the Kp in [1] is 1.64 ± 0.12. Besides, in series [6] (iv, 1 mg/kg, rat plasma), the exposure AUC(0-t) (commonly exposure summed from dosing to a finite time, without extrapolation to infinity) stood at 609 ± 62 ng·h/mL and the half-life – broadly, the time needed for the level to fall by half in the phase considered – is 1.6 ± 0.5 h. The clearance (commonly the rate of elimination divided by the concentration) in [6] (plasma, iv, 1 mg/kg, rat) was found to be 26.7 ± 3.4 mL/min/kg. In [6] (plasma, oral 3 mg/kg vs i.v. 1 mg/kg, rat, read-out: % F (Bioavailability)), the bioavailability – broadly, the share of a dose that reaches the circulation, judged against a reference dose that is usually intravenous – worked out at 62 ± 6%. Further, in series [6] (oral, 3 mg/kg, rat plasma), the exposure AUC(0-t) turned out to be 1140 ± 114 ng·h/mL, the Cmax (commonly the peak of the concentration-time curve) was found to be 337 ± 141 ng/mL and the half-life is 3 ± 3 h. The concentration for a half-maximal effect (EC50) in series [2] (setting [10]) was 432 nM.
`N#CC1(c2ccccn2)CCN(Cc2cc(C(=O)O)c(=O)n3ccccc23)CC1` [PQCA, 1-{[4-cyano-4-(pyridine-2-yl)piperidin-1-yl]methyl}-4-oxo-4H-quinolizine-3-carboxylic acid]: the “selectivity for M1 over the other muscarinic receptor subtypes” value on M1 is given as “highly selective”. Moreover, the gastrointestinal side effects result in [7] (at doses equal to or less than a fivefold margin from the minimum effective dose required to improve cognition) was “no gastrointestinal side effects”. Also, the “efficacy in preclinical models of cognition” value in [7] (several preclinical models of cognition) is “efficacious”.
On to `CCCCCCOc1nsnc1C1=CCCN(C)C1` [Xanomeline], for which, in [8] (clinical Alzheimer's disease (AD) trial), the effects on cognition entry was “significant effects on cognition”. Further, the gastrointestinal side effects entry in series [8] (clinical trials) was “gastrointestinal side effects led to a high dropout rate”.

(Values after patent publication US10294217B2, “Fluoroindole derivatives as muscarinic M1 receptor positive allosteric modulators” (Suven Life Sciences Limited, priority 2015, dated 2019).)
